We go through three compounds from paper PMC7589992 (Pharmaceutics, 2020).

In series [1] the test system is Caco-2 cell monolayers. Description: In vitro transepithelial permeation across Caco-2 cell monolayers. Format: in vitro ADME, human. To be noted: Caco-2, apical to basolateral, 3 h, 37 °C, ELISA/EIA, N = 3, n = 3; for effect on permeation of lowering the sample pH from 6.5 or 7.4 to pH 5, without penetratin (in words): 5 µM peptide alone. How it is done: At 80% confluency the cells were sub-cultured by detaching them from the culture flasks by trypsin-EDTA treatment. […] Caco-2 cell monolayers were washed twice apical and basolateral with 37 °C hHBSS. The cells were equilibrated to room temperature in the last washing volume before TEER was measured using an EVOM equipped with an Endohm-12 cup (World Precision Instruments, Sarasota, FL, USA) and equilibration to 37 °C. […] The permeation study was initiated by careful transfer of the filter inserts to fresh 12-well plates containing 1 mL 37 °C hHBSS. The experiment was performed on a 37 °C shaking table (50 rpm). 100 µL test samples were withdrawn from the basolateral compartment at time-points 0, 60, 120 and 180 min and stored at −20 °C. The sample volume was immediately replaced with 37 °C hHBSS.

The conditions of series [2]: no reference given; cited from earlier work.
A short description of series [3]: In situ rat intestinal injection: plasma insulin or PTH(1-34). Format: in vivo. To be noted: intraintestinal. How it is done: 100 μL test samples were withdrawn from the basolateral compartment at time-points 0, 60, 120 and 180 min and stored at -20 °C. The sample volume was immediately replaced with 37 °C hHBSS. […] Male Sprague Dawley rats (Taconic, Ejby, Denmark) weighing ~250 g were allowed to acclimatize for at least 8 days at 20-22 °C and 45-65% humidity with free access to water and food. The rats were fasted for 18 h prior to surgery. Hypnorm (fentanyl 0.315 mg/mL and fluanisone 10 mg/mL) (Glostrup apotek, Glostrup, Denmark) and Dormicum (midazolam 5 mg/mL) (Nomeco, Copenhagen, Denmark) were mixed 1:1 (v/v) with ultrapure water and used for anesthesia. The initial dose was 2 mL/kg and subsequent doses of 1 mL/kg were given every 20 min within the first hour and thereafter every 40 min to keep the animals anaesthetized. All doses of anesthetics were administered subcutaneously in the neck region. The abdominal wall was cut open and the small intestine localized. A 10 cm PE-50 catheter (Smiths Medical, Keene, NH, USA) was inserted into the middle of the intestine and secured with a 3/0 suture (Braun, Tuttlingen, Germany). Care was taken not to interrupt the mesenteric blood flow. The intestine was hydrated with 1-2 mL isotonic sodium chloride solution before the rat abdominal wall was closed with 9 mm clips using the AutoClip Wound Closure System (Alzet, Cupertino, CA, USA). […] The blood samples were placed on ice prior isolation of the plasma by centrifugation at 2000× g at 4 °C for 10 min (Eppendorf centrifuge 5424, Eppendorf, Hamburg, Germany). Blood glucose was measured at time points of 15, 30, 45, 60, 90, and 120 min after dosing using an On-Call blood glucose meter (Acon, San Diego, CA, USA). After the final blood sampling, the animals were euthanized while still under anesthesia using 90% CO2 in O2 [19]. The abdominal wall of the rats was reopened after the experiment to ensure the catheter was still in place. Likewise, control of potential damage to the intestine was determined macroscopically. The experiments were conducted in strict compliance with the national animal research license 2009/561-1622.

Series [4] deals with Caco-2 cell monolayers. Description: In vitro stability during apical incubation on Caco-2 cell monolayers. The series is classed as in vitro ADME, human. To be noted: 37 °C, RP-HPLC; for peptide remaining after 4 h in physical mixture with penetratin, % of initially applied: 5 µM peptide + 20 µM penetratin, N = 3, mean ± SD. How it is done: (§1) At 80% confluency the cells were sub-cultured by detaching them from the culture flasks by trypsin-EDTA treatment. […] [17]. Briefly, The Caco-2 cell monolayers were washed twice apical and basolateral with 37 °C hHBSS and equilibrated to room temperature in the last washing volume. The transepithelial electrical resistance (TEER) was measured using an EVOM equipped with an Endohm-12 cup (World Precision Instruments, Sarasota, FL, USA) to validate the barrier integrity of the monolayer. Following equilibration to 37 °C the filter inserts were transferred to empty 6-well plates in order to block permeation across the monolayer. […] The kinetics of the metabolic degradation was evaluated by analytical RP-HPLC as described under the ultracentrifugation procedure.

Test in series [5]: as above
Format: in vitro ADME, human. To be noted: human, peptide alone, 5 µM, 37 °C, RP-HPLC, N = 3, mean ± SD, read-out: intact peptide remaining after 4 h, % of initial concentration. How it is done:
as §1

The nature of series [6]: ThT binding to supramolecular complexes, plate reader fluorescence. The series is classed as physicochemical. To be noted: all pH-values tested (5, 6.5, 7.4); 50 µM insulin or PTH(1-34) or 200 µM penetratin alone, 100 µM ThT; N = 3.
Series [7] is described as follows: Visual inspection of samples at the concentrations applied in vivo. The series is classed as physicochemical. To be noted: PTH(1-34) mixed with penetratin.
A further series has as its system Male Sprague Dawley rats. In words: In situ rat intestinal injection: blood glucose. The series is classed as in vivo. To be noted: intraintestinal. The protocol:
Male Sprague Dawley rats (Taconic, Ejby, Denmark) weighing ~250 g were allowed to acclimatize for at least 8 days at 20–22 °C and 45–65% humidity with free access to water and food. The rats were fasted for 18 h prior to surgery. Hypnorm (fentanyl 0.315 mg/mL and fluanisone 10 mg/mL) (Glostrup apotek, Glostrup, Denmark) and Dormicum (midazolam 5 mg/mL) (Nomeco, Copenhagen, Denmark) were mixed 1:1 (v/v) with ultrapure water and used for anesthesia. The initial dose was 2 mL/kg and subsequent doses of 1 mL/kg were given every 20 min within the first hour and thereafter every 40 min to keep the animals anaesthetized. All doses of anesthetics were administered subcutaneously in the neck region. The abdominal wall was cut open and the small intestine localized. A 10 cm PE-50 catheter (Smiths Medical, Keene, NH, USA) was inserted into the middle of the intestine and secured with a 3/0 suture (Braun, Tuttlingen, Germany). Care was taken not to interrupt the mesenteric blood flow. The intestine was hydrated with 1–2 mL isotonic sodium chloride solution before the rat abdominal wall was closed with 9 mm clips using the AutoClip Wound Closure System (Alzet, Cupertino, CA, USA). The animal was left on a 37 °C heating plate (Scandidact, Kvistgaard, Denmark) for 30 min prior dosing of the test samples to allow normalization of the potentially elevated blood glucose level resulting from stress induced by handling and surgery. […] A volume of 200 µL air was injected immediately after dosing to fully empty the catheter into the intestinal lumen. 200 µL blood samples were collected from the tail vein at time points 0, 5, 15, 30, 45, 60, 90, and 120 min into EDTA-coated microcuvette vials (Sarstedt, Nümbrecht, Germany). The blood samples were placed on ice prior isolation of the plasma by centrifugation at 2000× g at 4 °C for 10 min (Eppendorf centrifuge 5424, Eppendorf, Hamburg, Germany). Blood glucose was measured at time points of 15, 30, 45, 60, 90, and 120 min after dosing using an On-Call blood glucose meter (Acon, San Diego, CA, USA). After the final blood sampling, the animals were euthanized while still under anesthesia using 90% CO2 in O2 [19]. The abdominal wall of the rats was reopened after the experiment to ensure the catheter was still in place. Likewise, control of potential damage to the intestine was determined macroscopically. The experiments were conducted in strict compliance with the national animal research license 2009/561-1622.

A short description of series [8]: Size distribution by dynamic light scattering. The series is classed as physicochemical. To be noted: DLS, mHBSS pH 5, 25 °C, 180 µM insulin or PTH(1-34), alone or mixed with 720 µM penetratin, N = 3, mean ± SD. How it is done:
Size distributions according to the distribution by volume were determined using a Zetasizer Nano ZSP (Malvern Instruments, Worcestershire, UK) equipped with a 633 nm laser at 25 °C with 10–20 runs of 10 s and N = 3.

[9] abbreviates: apical pH 5, 5 µM peptide + 20 µM penetratin.
The mark [10] stands for this setting: apical pH 6.5 and 7.4, 5 µM peptide + 20 µM penetratin.
Setting [11] is: pH 5, apical incubation on Caco-2 monolayers.
Where [12] appears, read: pH 6.5, apical incubation on Caco-2 monolayers.
[13] abbreviates: pH 7.4, apical incubation on Caco-2 monolayers.
Setting [14] is: insulin (50 IU/kg) alone or 720 µM penetratin alone, pH 5, N = 6, mean ± SD.

Read-outs that look alike come from different tables or passages of the source.

In the case of `CC[C@H](C)[C@H](NC(=O)[C@H](CCC(=O)O)NC(=O)[C@H](CO)NC(=O)[C@@H](NC(=O)[C@@H](N)CO)C(C)C)C(=O)N[C@@H](CCC(N)=O)C(=O)N[C@@H](CC(C)C)C(=O)N[C@@H](CCSC)C(=O)N[C@@H](Cc1cnc[nH]1)C(=O)N[C@@H](CC(N)=O)C(=O)N[C@@H](CC(C)C)C(=O)NCC(=O)N[C@@H](CCCCN)C(=O)N[C@@H](Cc1cnc[nH]1)C(=O)N[C@@H](CC(C)C)C(=O)N[C@@H](CC(N)=O)C(=O)N[C@@H](CO)C(=O)N[C@@H](CCSC)C(=O)N[C@@H](CCC(=O)O)C(=O)N[C@@H](CCCN=C(N)N)C(=O)N[C@H](C(=O)N[C@@H](CCC(=O)O)C(=O)N[C@@H](Cc1c[nH]c2ccccc12)C(=O)N[C@@H](CC(C)C)C(=O)N[C@@H](CCCN=C(N)N)C(=O)N[C@@H](CCCCN)C(=O)N[C@@H](CCCCN)C(=O)N[C@@H](CC(C)C)C(=O)N[C@@H](CCC(N)=O)C(=O)N[C@@H](CC(=O)O)C(=O)N[C@H](C(=O)N[C@@H](Cc1cnc[nH]1)C(=O)N[C@@H](CC(N)=O)C(=O)N[C@@H](Cc1ccccc1)C(=O)O)C(C)C)C(C)C` [PTH(1-34)], in the series with Caco-2 cell monolayers [1], the “effect on permeation of lowering the sample pH from 6.5 or 7.4 to pH 5, without penetratin (in words)” value is “did not increase”. The “penetratin-mediated transepithelial permeation / Papp (in words)” value is recorded as “increase” in the series with Caco-2 cell monolayers [1] (setting [9]) and “no significant increase” in the series on Caco-2 cell monolayers [1] (setting [10]). Also, the pI in series [2] was 8.3. For the same compound, the “pH-dependent trend of penetratin-mediated delivery, Cmax of plasma PTH(1-34) and AUC” value in series [3] (PTH(1-34) 1.2 mg/kg + penetratin 1:4, N = 6) was “pH 5 > pH 6.5 > pH 7.4”. In addition, the “peptide remaining after 4 h in physical mixture with penetratin, % of initially applied” value is 72.4 ± 3.0% with Caco-2 cell monolayers [4] (setting [11]), 67.0 ± 2.6% in the series on Caco-2 cell monolayers [4] (setting [12]) and 69.9 ± 2.7% in the series on Caco-2 cell monolayers [4] (setting [13]). For the same compound, the results for the remaining at 4 h, 5 µM in [5] (setting [11]), in series [5] (setting [12]) and in series [5] (setting [13]) were 66.6 ± 8.5%, 71.7 ± 7.1% and 73.6 ± 9.1%, respectively. Further, the “ThT fluorescence above background, peptide alone (in words)” value (shortened to “ThT fluorescence above background”) in series [6] was “no pronounced increase”. For the same compound, the “visible precipitation on mixing with penetratin (in words)” value in series [7] is recorded as “not evident”.

Consider RQIKIWFQNRRMKWKK [penetratin], for which, in series [2], the pI is given as 12.3. For the same compound, the “ThT fluorescence above background” value in [6] is given as “no pronounced increase”. In addition, in the series on Male Sprague Dawley rats (setting [14]), the “blood glucose level, % of initial value” is reported as “did not affect”.

For “insulin: Human recombinant insulin (5807.6 g/mol, Zn-free) provided by Sanofi”, in the series with Caco-2 cell monolayers [1], the “effect on permeation of lowering the sample pH from 6.5 or 7.4 to pH 5, without penetratin (in words)” value is on record as “did not increase”. In addition, the “penetratin-mediated transepithelial permeation / Papp (in words)” value with Caco-2 cell monolayers [1] (setting [9]) is “increase”; in the series with Caco-2 cell monolayers [1] (setting [10]) it was “no significant increase”. The compound also gave a volume mean size in series [8] of 1579 ± 319 nm. Also, the “plasma insulin concentration and AUC on co-administration with penetratin (in words)” value in series [3] (insulin 50 IU/kg + penetratin 1:4, pH 5, compared to pH 6.5 and 7.4, N = 6) was “greatest effect”; in series [3] (insulin 50 IU/kg + penetratin 1:4, pH 6.5, N = 6), “slight increase”; in series [3] (insulin 50 IU/kg + penetratin 1:4, pH 7.4, N = 6), “did not differ from administration of insulin alone”. Further, the “stability during incubation for 4 h (in words)” value with Caco-2 cell monolayers [4] (5 µM insulin alone, pH 5, 6.5, or 7.4, apical incubation on Caco-2 monolayers, N = 3) was “remained stable”. The “peptide remaining after 4 h in physical mixture with penetratin, % of initially applied” value with Caco-2 cell monolayers [4] (setting [11]) is on record as 89.9 ± 11.2%; in the series on Caco-2 cell monolayers [4] (setting [13]), “remained stable”. Further, in series [6], the “ThT fluorescence above background” value is “increase”. The “blood glucose level, % of initial value” is 38.5 ± 23.8% in the series with Male Sprague Dawley rats (insulin 50 IU/kg in physical mixture with 720 µM penetratin (1:4), pH 5, 60 min time-point, N = 6, mean ± SD); 71.1 ± 17.8% with Male Sprague Dawley rats (insulin 50 IU/kg in physical mixture with 720 µM penetratin (1:4), pH 6.5, after 60 min, N = 6, mean ± SD); 83.3 ± 21.2% with Male Sprague Dawley rats (insulin 50 IU/kg in physical mixture with 720 µM penetratin (1:4), pH 7.4, after 60 min, N = 6, mean ± SD); 86.9 ± 6.0% with Male Sprague Dawley rats (setting [14]); 88.9 ± 11.1% in the series on Male Sprague Dawley rats (insulin (50 IU/kg) alone, pH 6.5, N = 6, mean ± SD). In addition, the “blood glucose level (in words)” value in the series on Male Sprague Dawley rats (insulin (50 IU/kg) alone, pH 7.4, N = 6) is given as “did not affect”.
